Several values for one entry are separate records, joined by “and”; a condition that tells them apart may be missing. Equal values may be shown once. Entries after “also recorded” stand apart in the source; their conditions may differ. Blank lines part the entries; values can stand above or below the compound they belong to.
How the values were obtained:
[1] = 3-period crossover study of betrixaban and digoxin alone and in combination for 7 days in healthy subjects; assay type: in vivo, human
From the text: For each period, subjects reported to the clinical research unit on the day prior to Day 1 and remained there until Day 8 (at least until the last blood sample collection). The total duration of the study for each subject was 14 weeks: up to 4 weeks predose, approximately 1 week in the study unit on 3 occasions (with each treatment period separated by an approximate 2-week washout [i.e., 12 to 14 days]), and up to 3 weeks after the last dose until the Termination Visit. Serial blood samples and interval urine collections were obtained over the last dosing interval (Day 7 to 8) during each study period. Routine safety laboratory data was obtained at baseline during and after drug administration; additional safety laboratory and clinical data were collected.
All doses were taken under fasting conditions (no food starting from the midnight before dosing and continuing until 2 hours postdose).
Safety assessments included electrocardiogram (ECG) intervals, vital signs, laboratory parameters, and adverse events (AEs).
Mean and individual concentration-versus-time curves were plotted. […]
The 90% confidence intervals (CIs) for the difference in least squares means (test-reference, where test=drugs in combination and reference=drugs alone) was calculated for each parameter. […]

[2] = 2-way crossover study of single-dose betrixaban alone and following 5 days of ketoconazole in healthy subjects (plasma/urine PK, safety); assay type: in vivo, human; conditions: for Cmax: ketoconazole Cmax
From the text: Blood and urine samples were obtained at specific time intervals after dosing for pharmacokinetic evaluations.
For each subject, the total duration of the study was up to 11 weeks (4 weeks predose, 1 week in the study unit on 2 occasions separated by a 12- to 14-day washout period, and 3 weeks after the last dose until the termination visit).
Safety was monitored by adverse event monitoring, clinical laboratory testing (hematology, serum chemistry, and urinalysis), vital sign measurements (oral temperature, respiratory rate, pulse rate, and systolic and diastolic blood pressure), electrocardiograms, and physical examinations.

effect of co-administration of betrixaban on digoxin PK ([1]; 7 days): no impact; also recorded: no effect
Tmax ([1]; human, plasma, oral, digoxin median tmax, second value of pair (digoxin alone by order)): 1.01 h
Compound: C[C@H]1O[C@@H](O[C@H]2[C@@H](O)C[C@H](O[C@H]3[C@@H](O)C[C@H](O[C@H]4CC[C@@]5(C)[C@H](CC[C@@H]6[C@@H]5C[C@@H](O)[C@]5(C)[C@@H](C7=CC(=O)OC7)CC[C@]65O)C4)O[C@@H]3C)O[C@@H]2C)C[C@H](O)[C@@H]1O [digoxin]

Compound: CC(=O)N1CCN(c2ccc(OCC3COC(Cn4ccnc4)(c4ccc(Cl)cc4Cl)O3)cc2)CC1 (stereo not drawn) [ketoconazole]
ketoconazole CL/F, mean (SD) ([2]; Day 1): 5.717 (2.373) L/h
ketoconazole trough concentration, least squares geometric mean ([2]; Day 1 12 hours): 769 ng/mL
ketoconazole trough concentration, least squares geometric mean ([2]; Day 1 predose): 1030 ng/mL
ketoconazole CL/F, mean (SD) ([2]; Day-1): 7.954 (7.110) L/h
ketoconazole trough concentration, least squares geometric mean ([2]; Day-1 predose): 1250 ng/mL
increased exposure of ketoconazole [Cmax and AUC(0-12)] when given with betrixaban ([2]; human, in vivo): 21-22% and ~20%
Tmax ([2]; human, plasma, oral): 2 h
Tmax ([2]; human, plasma, oral, 200 mg): 2 h
AUC(0-t) ([2]; human, plasma, oral, 200 mg, ketoconazole AUC(0-12), geometric LS mean, Treatment R: ketoconazole 200 mg alone): 30900 ng·h/mL
Cmax ([2]; human, plasma, oral, 200 mg, geometric LS mean, Treatment R: ketoconazole 200 mg alone): 5260 ng/mL
Cmax ([2]; human, plasma, oral, 200 mg, mean (SD), Day-1): 5900 ng/mL
AUC(0-t) ([2]; human, plasma, oral, 200 mg, ketoconazole plasma AUC(0-12), mean (SD), Day-1): 35300 ng·h/mL
concentration at 12 h ([2]; human, plasma, oral, 200 mg, Day-1 12 hours): 697 ng/mL
AUC(0-t) ([2]; human, plasma, oral, ketoconazole AUC(0-12), geometric LS mean, Treatment T: ketoconazole 200 mg co-administered with 40-mg betrixaban): 37300 ng·h/mL
Cmax ([2]; human, plasma, oral, geometric LS mean, Treatment T: ketoconazole 200 mg co-administered with 40-mg betrixaban): 6420 ng/mL
Cmax ([2]; human, plasma, oral, mean (SD), Day 1 (day of betrixaban administration)): 6620 ng/mL

From patent publication US20120095019A1 (priority 2010, published 2012)
